# Measured values reported in patent publication US5202315A, “Cephalosporin compounds” (Lucky, Ltd., priority 1989, dated 1993).
# Legend:
# [1] = test system: Acinetobacter calcoaceticus ATCC 15473; experiment: Antibacterial activity, MIC; format: cell-based; details: ATCC15473, 20 h
# How it was run: (§1)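 Agar two-fold dilution method: compound serially diluted two-fold in Mueller-Hinton agar, spotted with 2 μl of a 10^7 CFU/ml inoculum of each standard strain, then incubated at 37 °C for 20 h.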
# [2] = test system: Bacillus cereus ATCC 11778; experiment: Antibacterial activity, MIC; format: cell-based; details: ATCC11778, 20 h
# How it was run: as §1
# [3] = test system: Bacillus megaterium ATCC 9885; experiment: Antibacterial activity, MIC; format: cell-based; details: Priestia megaterium, ATCC9885, 20 h
# How it was run: as §1
# [4] = test system: Citrobacter freundii ATCC 8090; experiment: Antibacterial activity, MIC; format: cell-based; details: ATCC8090, 20 h
# How it was run: as §1
# [5] = test system: Enterobacter aerogenes ATCC 29751; experiment: Antibacterial activity, MIC; format: cell-based; details: Klebsiella aerogenes, ATCC29751, 20 h
# How it was run: as §1
# [6] = test system: Enterobacter cloacae ATCC 27508; experiment: Antibacterial activity, MIC; format: cell-based; details: ATCC27508, 20 h
# How it was run: as §1
# [7] = test system: Escherichia coli ATCC 10536; experiment: Antibacterial activity, MIC; format: cell-based; details: ATCC10536, agar two-fold dilution, 37° C., 20 hours
# How it was run: as §1
# [8] = test system: Escherichia coli ATCC 25922; experiment: Antibacterial activity, MIC; format: cell-based; details: ATCC25922, agar two-fold dilution, 37° C., 20 hours
# How it was run: as §1
# [9] = test system: Klebsiella pneumoniae ATCC 10031; experiment: Antibacterial activity, MIC; format: cell-based; details: ATCC10031, 20 h
# How it was run: as §1
# [10] = test system: Micrococcus luteus ATCC 9341; experiment: Antibacterial activity, MIC; format: cell-based; details: ATCC9341, 20 h
# How it was run: as §1
# [11] = test system: Morganella morganii ATCC 8076h; experiment: Antibacterial activity, MIC; format: cell-based; details: ATCC8076H, agar two-fold dilution, 37° C., 20 hours
# How it was run: as §1
# [12] = test system: Proteus mirabilis ATCC 25933; experiment: Antibacterial activity, MIC; format: cell-based; details: ATCC25933, 20 h
# How it was run: as §1
# [13] = test system: Proteus vulgaris ATCC 6059; experiment: Antibacterial activity, MIC; format: cell-based; details: ATCC6059, 20 h
# How it was run: as §1
# [14] = test system: Providencia rettgeri ATCC 9250; experiment: Antibacterial activity, MIC; format: cell-based; details: ATCC9250, agar two-fold dilution, 37° C., 20 hours
# How it was run: as §1
# [15] = test system: Pseudomonas aeruginosa ATCC 10145; experiment: Antibacterial activity, MIC; format: cell-based; details: ATCC10145, 20 h
# How it was run: as §1
# [16] = test system: Pseudomonas aeruginosa ATCC 25619; experiment: Antibacterial activity, MIC; format: cell-based; details: ATCC25619, 20 h
# How it was run: as §1
# [17] = test system: Pseudomonas aeruginosa ATCC 27853; experiment: Antibacterial activity, MIC; format: cell-based; details: ATCC27853, 20 h
# How it was run: as §1
# [18] = test system: Salmonella typhimurium ATCC 14028; experiment: Antibacterial activity, MIC; format: cell-based; details: Salmonella enterica, 20 h
# How it was run: as §1
# [19] = test system: Serratia marcescens ATCC 27117; experiment: Antibacterial activity, MIC; format: cell-based; details: ATCC27117, 20 h
# How it was run: as §1
# [20] = test system: Shigella flexneri ATCC 11836; experiment: Antibacterial activity, MIC; format: cell-based; details: ATCC11836, agar two-fold dilution, 37° C., 20 hours
# How it was run: as §1
# [21] = test system: Shigella sonnei ATCC 11060; experiment: Antibacterial activity, MIC; format: cell-based; details: ATCC11060, ATCC 11060, agar two-fold dilution, 37° C., 20 hours, read-out: MIC
# How it was run: as §1
# [22] = test system: Staphylococcus aureus ATCC 10537; experiment: Antibacterial activity, MIC; format: cell-based; details: ATCC10537, 20 h
# How it was run: as §1
# [23] = test system: Staphylococcus aureus ATCC 6538p; experiment: Antibacterial activity, MIC; format: cell-based; details: ATCC6538P, 20 h
# How it was run: as §1
# [24] = test system: Staphylococcus epidermidis ATCC 12228; experiment: Antibacterial activity, MIC; format: cell-based; details: ATCC12228, 20 h
# How it was run: as §1
# [25] = test system: Streptococcus faecalis ATCC 29212; experiment: Antibacterial activity, MIC; format: cell-based; details: Enterococcus faecalis, ATCC29212, 20 h
# How it was run: as §1
# Escherichia coli = experiment: Antibacterial activity against clinically isolated strains, MIC; format: cell-based
# Klebsiella pneumoniae = experiment: as above; format: cell-based
# [26] = test system: Staphylococcus aureus methicillin susceptible; experiment: as above; format: cell-based
# [27] = test system: Staphylococcus aureus methicillin resistant; experiment: as above; format: cell-based
# Pseudomonas aeruginosa = experiment: as above; format: cell-based
# [28] = In-vivo absorbency (plasma concentrations & pharmacokinetic parameters); set-up: species or system SD rat (male); details: rat, in vivo, iv, 20 mg/kg
# Text: The blood samples from the femoral vein of the rats were taken every hour after administration, and analyzed by bio-assay(agar well method).
# Tested animal: SD male Rat (220~340 g)
# [29] = as above; set-up: species or system SD rat (male); details: rat, in vivo, iv, 20 mg/kg; remark: listed apart in the source
smiles,measurement,setting,value
"CC(C)(O/N=C(\C(=O)N[C@@H]1C(=O)N2C(C(=O)[O-])=C(C[n+]3ccccc3)CS[C@H]12)c1csc(N)n1)C(=O)O [Ceftazidime, reference compound]",MIC,[1],4 µg/mL
same,MIC,[2],128 µg/mL
same,MIC,[3],0.25 µg/mL
same,MIC,[4],0.25 µg/mL
same,MIC,[5],8 µg/mL
same,MIC,[6],0.063 µg/mL
same,MIC,[7],0.13 µg/mL
same,MIC,[8],0.13 µg/mL
same,MIC,[9],0.13 µg/mL
same,MIC,[10],1 µg/mL
same,MIC,[11],0.016 µg/mL
same,MIC,[12],0.063 µg/mL
same,MIC,[13],0.063 µg/mL
same,MIC,[14],≤ 0.008 µg/mL
same,MIC,[15],2 µg/mL
same,MIC,[16],1 µg/mL
same,MIC,[17],1 µg/mL
same,MIC,[18],0.25 µg/mL
same,MIC,[19],0.13 µg/mL
same,MIC,[20],0.063 µg/mL
same,MIC,[21],0.13 µg/mL
same,MIC,[22],8 µg/mL
same,MIC,[23],16 µg/mL
same,MIC,[24],8 µg/mL
same,MIC,[25],> 128 µg/mL
same,MIC50,Escherichia coli,0.13 µg/mL
same,MIC90,"Escherichia coli; 38 clinical isolates, broth microdilution test",0.13 µg/mL
same,MIC50,Klebsiella pneumoniae,0.063 µg/mL
same,MIC90,Klebsiella pneumoniae,0.5 µg/mL
same,MIC50,[26],8 µg/mL
same,MIC90,[26],8 µg/mL
same,MIC50,[27],128 µg/mL
same,MIC90,[27],> 128 µg/mL
same,MIC50,Pseudomonas aeruginosa,4 µg/mL
same,MIC90,Pseudomonas aeruginosa,16 µg/mL
same,concentration at 1 h,[28],4700 ng/mL
same,concentration at 2 h,[28],1600 ng/mL
same,AUC,[29],31100 ng·h/mL
same,concentration at 1 min,[29],135000 ng/mL
same,concentration at 2.5 min,[29],94000 ng/mL
same,concentration at 5 min,[29],71000 ng/mL
same,concentration at 10 min,[29],53000 ng/mL
same,concentration at 20 min,[29],26000 ng/mL
same,concentration at 40 min,[29],10000 ng/mL
